Measurements: patent publication US11076595B2, “1-(n,n-disubstituted carbamoyl) 4-(substituted sulfonyl)triazolin-5-one derivative, 4-(n,n-disubstituted carbamoyl) 1-(substituted sulfonyl)triazolin-5-one derivative, and herbicide containing said derivative as active ingredient” (HOKKO CHEMICAL INDUSTRY CO., LTD., priority 2017, dated 2021)

Tests used:
Format in all cases: in vivo
[1] = system: Echinochloa crus-galli; experiment: Test Example 1: herbicidal effect test by soil treatment in paddy field; conditions: 120 g/10a, paddy soil treatment just after sowing, 14 days after treatment
Description: (§1) A Wagner pot having an area of 1/10000 are was filled with paddy field soil and after adding water, a chemical fertilizer (N:P:K=17:17:17) was mixed, followed by puddling. Thereafter, 30 grains of each of Echinochloa crus-galli, broad-leaved weed (Lindernia pyxidaria and Monochoria vaginalis) and Scirpus juncoides seeds were sown to a depth of 0 to 1 cm. Immediately after the sowing, the pot was flooded, and the depth of water was kept at about 3 cm. The pot was subsequently managed in a glass greenhouse. Just after that, an emulsifiable concentrate prepared according to Formulation Example 5 by using the compound shown in Table 5 below was diluted with water, and a predetermined amount of the water-diluted formulation was added dropwise. The application rate of the active ingredient, by conversion, corresponded to 120 g per 10 are.
(§2) This test was performed with two replications per one formulation concentration plot, and 14 days after the formulation treatments, the weed suppression rate (%) was determined according to the following equation (Math. 1). Weed suppression rate (%)=(1−an average dry weight (g) of plants in treated plots/an average dry weight (g) of plants in untreated plots)×100 [Math. 1]

[2] = system: Lindernia pyxidaria; experiment: as above; conditions: 120 g/10a, paddy soil treatment just after sowing, 14 days after treatment
Description: as §1, §2

[3] = system: Monochoria vaginalis; experiment: as above; conditions: 120 g/10a, paddy soil treatment just after sowing, 14 days after treatment
Description: as §1, §2

[4] = system: Scirpus juncoides; experiment: as above; conditions: 120 g/10a, paddy soil treatment just after sowing, 14 days after treatment
Description: as §1, §2

[5] = system: Echinochloa crus-galli; experiment: Test Example 2: herbicidal effect test by treatment during growing period in paddy field; conditions: treatment 7 days after sowing, 120 g/10a, evaluated 14 days after treatment
Experimental: as §2
as §1, with “greenhouse. Seven days” for “greenhouse. Just”, “after sowing,” for “after that,”, “Table 6” for “Table 5”, “are. The test was performed with two replications per one formulation concentration plot, and 14 days after the formulation treatments, the weed suppression rate (%) was determined according to the equation (Math. 1).” for “are.”

[6] = system: Lindernia pyxidaria; experiment: as above; conditions: treatment 7 days after sowing, 120 g/10a, evaluated 14 days after treatment
Experimental: as §2
as §1, with “greenhouse. Seven days” for “greenhouse. Just”, “after sowing,” for “after that,”, “Table 6” for “Table 5”, “are. The test was performed with two replications per one formulation concentration plot, and 14 days after the formulation treatments, the weed suppression rate (%) was determined according to the equation (Math. 1).” for “are.”

[7] = system: Monochoria vaginalis; experiment: as above; conditions: treatment 7 days after sowing, 120 g/10a, evaluated 14 days after treatment
Experimental: as §2
as §1, with “greenhouse. Seven days” for “greenhouse. Just”, “after sowing,” for “after that,”, “Table 6” for “Table 5”, “are. The test was performed with two replications per one formulation concentration plot, and 14 days after the formulation treatments, the weed suppression rate (%) was determined according to the equation (Math. 1).” for “are.”

[8] = system: Scirpus juncoides; experiment: as above; conditions: treatment 7 days after sowing, 120 g/10a, evaluated 14 days after treatment
Experimental: as §2
as §1, with “greenhouse. Seven days” for “greenhouse. Just”, “after sowing,” for “after that,”, “Table 6” for “Table 5”, “are. The test was performed with two replications per one formulation concentration plot, and 14 days after the formulation treatments, the weed suppression rate (%) was determined according to the equation (Math. 1).” for “are.”

[9] = system: Echinochloa crus-galli; experiment: Test Example 11: herbicidal effect test by soil treatment in paddy field; conditions: 120 g/10a active ingredient, 14 days after treatment
In short: (§3)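 Dry weight at day 14 relative to untreated controls gives the suppression rate; duplicate pots. Treatment: 120 g a.i./10 are into paddy water at sowing.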

[10] = system: Lindernia pyxidaria; experiment: as above; conditions: 120 g/10a active ingredient, 14 days after treatment
In short: as §3

[11] = system: Monochoria vaginalis; experiment: as above; conditions: 120 g/10a active ingredient, 14 days after treatment
In short: as §3

[12] = system: Scirpus juncoides; experiment: as above; conditions: 120 g/10a active ingredient, 14 days after treatment
In short: as §3

[13] = system: Echinochloa crus-galli; experiment: Test Example 12: herbicidal effect test by treatment during growing period in paddy field; conditions: 120 g/10a; treatment seven days after sowing in flooded paddy pot; assessed 14 days after treatment
In short: (§4)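 Weed suppression (%) = (1 − treated/untreated mean dry weight) × 100, scored 14 days after treatment with two replicates per plot. Dose 120 g a.i. per 10 are, as diluted emulsifiable concentrate added dropwise to flooded pots (water about 3 cm) 7 days post-sowing, seeds at 0-1 cm.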

[14] = system: Lindernia pyxidaria; experiment: as above; conditions: 120 g/10a; treatment seven days after sowing in flooded paddy pot; assessed 14 days after treatment
In short: as §4

[15] = system: Monochoria vaginalis; experiment: as above; conditions: 120 g/10a; treatment seven days after sowing in flooded paddy pot; assessed 14 days after treatment
In short: as §4

[16] = system: Scirpus juncoides; experiment: as above; conditions: 120 g/10a; treatment seven days after sowing in flooded paddy pot; assessed 14 days after treatment
In short: as §4

[17] = system: Amaranthus viridis; experiment: Test Example 13: herbicidal effect test by soil treatment in upland field; conditions: 120 g/10a, 14 days after treatment
In short: (§5)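 Soil-applied emulsifiable concentrate at 120 g active ingredient per 10 are, sprayed one day after seeding into alluvial soil pots. Dry-weight-based suppression scored at 14 days; two replications.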

[18] = system: Chenopodium album; experiment: as above; conditions: 120 g/10a, 14 days after treatment
In short: as §5

[19] = system: Echinochloa crus-galli; experiment: as above; conditions: 120 g/10a, 14 days after treatment
In short: as §5

[20] = system: crabgrass; experiment: as above; conditions: 120 g/10a, 14 days after treatment
In short: as §5

[21] = system: Chenopodium album; experiment: Test Example 14: herbicidal effect test by foliage treatment in upland field; conditions: 7 days after sowing, 120 g/10a, 14 days after treatment
In short: (§6)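 Dry-weight read-out: suppression (%) = (1 − mean treated dry weight/mean untreated dry weight)×100, at 14 days post-spray, two replicate plots per concentration. Spray applied 7 days after sowing, 120 g a.i. per 10 are.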

[22] = system: crabgrass; experiment: as above; conditions: 7 days after sowing, 120 g/10a, 14 days after treatment
In short: as §6

[23] = system: Amaranthus viridis; experiment: as above; conditions: 7 days after sowing, 120 g/10a, 14 days after treatment
In short: as §6

[24] = system: Echinochloa crus-galli; experiment: as above; conditions: 7 days after sowing, 120 g/10a, 14 days after treatment
In short: as §6

CC(C)N(C(=O)n1ncn(S(=O)(=O)C2CCOC2)c1=O)c1ccc(F)cc1F (racemic) [Compound 1-1161]
weed suppression rate, Echinochloa crus-galli [1]: 90%
weed suppression rate, Lindemia pyxidaria [2]: 80%
weed suppression rate, Monochoria vaginalis [3]: 80%
weed suppression rate, Scirpus juncoides [4]: 90%
weed suppression rate, Echinochloa crus-galli [5]: 90%
weed suppression rate, Lindemia pyxidaria [6]: 80%
weed suppression rate, Monochoria vaginalis [7]: 80%
weed suppression rate, Scirpus juncoides [8]: 90%

CC(C)N(C(=O)n1ncn(S(=O)(=O)C(C)C)c1=O)c1ccccc1F [Compound 1-55]
weed suppression rate, Echinochloa crus-galli [1]: 90%
weed suppression rate, Lindemia pyxidaria [2]: 90%
weed suppression rate, Monochoria vaginalis [3]: 90%
weed suppression rate, Scirpus juncoides [4]: 90%
weed suppression rate, Echinochloa crus-galli [5]: 90%
weed suppression rate, Lindemia pyxidaria [6]: 90%
weed suppression rate, Monochoria vaginalis [7]: 90%
weed suppression rate, Scirpus juncoides [8]: 90%

CC(C)N(C(=O)n1ncn(S(=O)(=O)C(C)C)c1=O)c1ccc(Cl)cc1F [Compound 1-73]
weed suppression rate, Echinochloa crus-galli [1]: 100%
weed suppression rate, Lindemia pyxidaria [2]: 100%
weed suppression rate, Monochoria vaginalis [3]: 90%
weed suppression rate, Scirpus juncoides [4]: 80%
weed suppression rate, Echinochloa crus-galli [5]: 100%
weed suppression rate, Lindemia pyxidaria [6]: 80%
weed suppression rate, Monochoria vaginalis [7]: 90%
weed suppression rate, Scirpus juncoides [8]: 100%

Cc1ccc(N(C(=O)n2ncn(S(=O)(=O)C(C)C)c2=O)C(C)C)c(Cl)c1 [Compound 1-81]
weed suppression rate, Echinochloa crus-galli [1]: 90%
weed suppression rate, Lindemia pyxidaria [2]: 80%
weed suppression rate, Monochoria vaginalis [3]: 80%
weed suppression rate, Scirpus juncoides [4]: 90%
weed suppression rate, Echinochloa crus-galli [5]: 90%
weed suppression rate, Lindemia pyxidaria [6]: 80%
weed suppression rate, Monochoria vaginalis [7]: 80%
weed suppression rate, Scirpus juncoides [8]: 90%

CC(C)N(C(=O)n1ncn(S(=O)(=O)C(C)C)c1=O)c1ccc(F)nc1 [Compound 1-91]
weed suppression rate, Echinochloa crus-galli [1]: 100%
weed suppression rate, Lindemia pyxidaria [2]: 90%
weed suppression rate, Monochoria vaginalis [3]: 90%
weed suppression rate, Scirpus juncoides [4]: 90%
weed suppression rate, Echinochloa crus-galli [5]: 100%
weed suppression rate, Lindemia pyxidaria [6]: 90%
weed suppression rate, Monochoria vaginalis [7]: 90%
weed suppression rate, Scirpus juncoides [8]: 90%

CC(C)N(C(=O)n1ncn(S(=O)(=O)c2cccs2)c1=O)c1ccc(F)cc1F [Compound 1-1060]
weed suppression rate, Echinochloa crus-galli [1]: 90%
weed suppression rate, Lindemia pyxidaria [2]: 80%
weed suppression rate, Monochoria vaginalis [3]: 80%
weed suppression rate, Scirpus juncoides [4]: 90%

CCS(=O)(=O)n1ncn(C(=O)N(c2cccc(F)c2F)C(C)C)c1=O [Compound 11-1148]
Weed suppression rate (%) Echinochloa crus-galli [9]: 100%
Weed suppression rate (%) Lindemia pyxidaria [10]: 100%
Weed suppression rate (%) Monochoria vaginalis [11]: 90%
Weed suppression rate (%) Scirpus juncoides [12]: 100%
Weed suppression rate (%) Echinochloa crus-galli [13]: 100%
Weed suppression rate (%) Lindemia pyxidaria [14]: 90%
Weed suppression rate (%) Monochoria vaginalis [15]: 90%
Weed suppression rate (%) Scirpus juncoides [16]: 100%
herbicidal effect, Amaranthus viridis [17]: 100%
herbicidal effect, Chenopodium album [18]: 90%
herbicidal effect, Echinochloa crus-galli [19]: 100%
herbicidal effect, Crabgrass [20]: 100%
herbicidal effect, Chenopodium album [21]: 80%
herbicidal effect, Crabgrass [22]: 100%
herbicidal effect, Amaranthus viridis [23]: 70%
herbicidal effect, Echinochloa crus-galli [24]: 100%

COc1ccc(S(=O)(=O)n2ncn(C(=O)N(c3cccc(F)c3F)C(C)C)c2=O)cc1 [Compound 11-1149]
Weed suppression rate (%) Echinochloa crus-galli [9]: 100%
Weed suppression rate (%) Lindemia pyxidaria [10]: 100%
Weed suppression rate (%) Monochoria vaginalis [11]: 100%
Weed suppression rate (%) Scirpus juncoides [12]: 100%
Weed suppression rate (%) Echinochloa crus-galli [13]: 100%
Weed suppression rate (%) Lindemia pyxidaria [14]: 80%
Weed suppression rate (%) Monochoria vaginalis [15]: 100%
Weed suppression rate (%) Scirpus juncoides [16]: 100%
herbicidal effect, Amaranthus viridis [17]: 30%
herbicidal effect, Chenopodium album [18]: 30%
herbicidal effect, Echinochloa crus-galli [19]: 70%
herbicidal effect, Crabgrass [20]: 70%
herbicidal effect, Chenopodium album [21]: 70%
herbicidal effect, Crabgrass [22]: 80%
herbicidal effect, Amaranthus viridis [23]: 30%
herbicidal effect, Echinochloa crus-galli [24]: 70%

CCS(=O)(=O)n1ncn(C(=O)N(c2c(F)cccc2F)C(C)C)c1=O [Compound 11-1150]
Weed suppression rate (%) Echinochloa crus-galli [9]: 100%
Weed suppression rate (%) Lindemia pyxidaria [10]: 100%
Weed suppression rate (%) Monochoria vaginalis [11]: 70%
Weed suppression rate (%) Scirpus juncoides [12]: 90%
Weed suppression rate (%) Echinochloa crus-galli [13]: 100%
Weed suppression rate (%) Lindemia pyxidaria [14]: 100%
Weed suppression rate (%) Monochoria vaginalis [15]: 90%
Weed suppression rate (%) Scirpus juncoides [16]: 60%
herbicidal effect, Amaranthus viridis [17]: 90%
herbicidal effect, Chenopodium album [18]: 80%
herbicidal effect, Echinochloa crus-galli [19]: 100%
herbicidal effect, Crabgrass [20]: 100%
herbicidal effect, Chenopodium album [21]: 60%
herbicidal effect, Crabgrass [22]: 100%
herbicidal effect, Amaranthus viridis [23]: 50%
herbicidal effect, Echinochloa crus-galli [24]: 100%

CCS(=O)(=O)n1ncn(C(=O)N(c2c(F)cc(F)cc2F)C(C)C)c1=O [Compound 11-1154]
Weed suppression rate (%) Echinochloa crus-galli [9]: 100%
Weed suppression rate (%) Lindemia pyxidaria [10]: 100%
Weed suppression rate (%) Monochoria vaginalis [11]: 100%
Weed suppression rate (%) Scirpus juncoides [12]: 100%
Weed suppression rate (%) Echinochloa crus-galli [13]: 100%
Weed suppression rate (%) Lindemia pyxidaria [14]: 80%
Weed suppression rate (%) Monochoria vaginalis [15]: 90%
Weed suppression rate (%) Scirpus juncoides [16]: 80%
herbicidal effect, Amaranthus viridis [17]: 90%
herbicidal effect, Chenopodium album [18]: 80%
herbicidal effect, Echinochloa crus-galli [19]: 100%
herbicidal effect, Crabgrass [20]: 100%
herbicidal effect, Chenopodium album [21]: 80%
herbicidal effect, Crabgrass [22]: 100%
herbicidal effect, Amaranthus viridis [23]: 30%
herbicidal effect, Echinochloa crus-galli [24]: 100%

COc1ccc(S(=O)(=O)n2ncn(C(=O)N(c3c(F)cc(F)cc3F)C(C)C)c2=O)cc1 [Compound 11-1155]
Weed suppression rate (%) Echinochloa crus-galli [9]: 100%
Weed suppression rate (%) Lindemia pyxidaria [10]: 100%
Weed suppression rate (%) Monochoria vaginalis [11]: 80%
Weed suppression rate (%) Scirpus juncoides [12]: 100%
Weed suppression rate (%) Echinochloa crus-galli [13]: 100%
Weed suppression rate (%) Lindemia pyxidaria [14]: 80%
Weed suppression rate (%) Monochoria vaginalis [15]: 90%
Weed suppression rate (%) Scirpus juncoides [16]: 90%
herbicidal effect, Amaranthus viridis [17]: 30%
herbicidal effect, Chenopodium album [18]: 30%
herbicidal effect, Echinochloa crus-galli [19]: 90%
herbicidal effect, Crabgrass [20]: 90%
herbicidal effect, Chenopodium album [21]: 60%
herbicidal effect, Crabgrass [22]: 100%
herbicidal effect, Amaranthus viridis [23]: 30%
herbicidal effect, Echinochloa crus-galli [24]: 90%
